In brackets after ≈: the same amount, converted by molar mass.

One experiment concerns Staphylococcus aureus. Put plainly: Antibacterial activity against Staphylococcus aureus ATCC 25930 after 24 hrs by two fold serial dilution method. The format is functional. As to conditions: ATCC 25930, 24 h.
Another experiment relates to Bacillus subtilis. Put plainly: Antibacterial activity against Bacillus subtilis ATCC 530 after 24 hrs by two fold serial dilution method. In kind it is functional. As to conditions: ATCC 530, 24 h.
In another experiment the test system is Salmonella typhi. In words: Antibacterial activity against Salmonella typhi ATCC 25021 after 24 hrs by two fold serial dilution method. The format is functional, Salmonella enterica subsp. enterica serovar Typhi. The conditions noted are these: Salmonella enterica, ATCC 25021, 24 h.
A further experiment deals with Escherichia coli. In words: Antibacterial activity against Escherichia coli ATCC 26032 after 24 hrs by two fold serial dilution method. In kind it is functional. The conditions noted are these: ATCC 26032, 24 h.
For another experiment, the system named is Pseudomonas. Put plainly: Antibacterial activity against Pseudomonas ATCC 27853 after 24 hrs by two fold serial dilution method. In kind it is functional. As to conditions: ATCC 27853, 24 h.
The test system of the next experiment is Penicillium chrysogenum. In words: Antifungal activity against Penicillium chrysogenum ATCC 28089 after 72 to 96 hrs by two fold serial dilution method. In kind it is functional.
The subject of a further experiment is Aspergillus niger. Put plainly: Antifungal activity against Aspergillus niger ATCC 635 after 72 to 96 hrs by two fold serial dilution method. In kind it is functional.
The test system of the next experiment is Rhizopus. In words: Antifungal activity against Rhizopus sp. ATCC 2842 after 72 to 96 hrs by two fold serial dilution method. In kind it is functional.
The test system of another experiment is Fusarium oxysporum. Put plainly: Antifungal activity against Fusarium oxysporum ATCC 48112 after 72 to 96 hrs by two fold serial dilution method. In kind it is functional.
The subject of the next experiment is Aspergillus flavus. In words: Antifungal activity against Aspergillus flavus ATCC 525 after 72 to 96 hrs by two fold serial dilution method. The format is functional.
Experiment [1] in a line: Ratio of MIC for Bacillus subtilis ATCC 530 to MIC for Salmonella typhi ATCC 25021. In kind it is functional.
A short description of experiment [2]: Ratio of MIC for Pseudomonas ATCC 27853 to MIC for Salmonella typhi ATCC 25021. The format is functional.

Turning to `C=CCN1[C@H](c2ccccc2)CC(=O)[C@@H](C)[C@@H]1c1ccccc1` (relative stereo), the MIC against Staphylococcus aureus turned out to be 100 µg/mL (≈ 327 µM); against Bacillus subtilis, 200 µg/mL (≈ 655 µM); in the experiment with Salmonella typhi, 50 µg/mL (≈ 164 µM); against Escherichia coli, 100 µg/mL (≈ 327 µM); in the experiment with Pseudomonas it was 200 µg/mL (≈ 655 µM); in the experiment on Penicillium chrysogenum, 50 µg/mL (≈ 164 µM). In addition, the MIC with Aspergillus niger was determined as 50 µg/mL (≈ 164 µM); in the experiment on Rhizopus, 200 µg/mL (≈ 655 µM); with Fusarium oxysporum it was 100 µg/mL (≈ 327 µM); in the experiment with Aspergillus flavus it was 50 µg/mL (≈ 164 µM).

On to `C=CCN1[C@H](c2ccc(C)cc2)CC(=O)[C@@H](C)[C@@H]1c1ccc(C)cc1` (relative stereo), for which the MIC against Staphylococcus aureus worked out at 50 µg/mL (≈ 150 µM); in the experiment on Bacillus subtilis, 100 µg/mL (≈ 300 µM); against Salmonella typhi it was 12.5 µg/mL (≈ 37.5 µM); against Escherichia coli, 25 µg/mL (≈ 75 µM); in the experiment with Pseudomonas, 50 µg/mL (≈ 150 µM); with Penicillium chrysogenum, 25 µg/mL (≈ 75 µM). Also, the MIC against Aspergillus niger worked out at 50 µg/mL (≈ 150 µM); in the experiment with Rhizopus, 6.25 µg/mL (≈ 18.7 µM); against Fusarium oxysporum, 25 µg/mL (≈ 75 µM); in the experiment with Aspergillus flavus it was 50 µg/mL (≈ 150 µM). For the same compound, the Ratio in experiment [1] is 3; in experiment [2] it was 2.

With `C=CCN1[C@H](c2ccc(Cl)cc2)CC(=O)[C@@H](C)[C@@H]1c1ccc(Cl)cc1` (relative stereo), the MIC came to 25 µg/mL (≈ 66.8 µM) in the experiment with Staphylococcus aureus; 50 µg/mL (≈ 134 µM) with Bacillus subtilis; 12.5 µg/mL (≈ 33.4 µM) in the experiment on Salmonella typhi; 12.5 µg/mL (≈ 33.4 µM) in the experiment with Escherichia coli; 50 µg/mL (≈ 134 µM) against Pseudomonas; 6.25 µg/mL (≈ 16.7 µM) against Penicillium chrysogenum. Also, the MIC in the experiment on Aspergillus niger amounted to 50 µg/mL (≈ 134 µM); in the experiment with Rhizopus, 25 µg/mL (≈ 66.8 µM); in the experiment with Fusarium oxysporum, 12.5 µg/mL (≈ 33.4 µM); against Aspergillus flavus, 25 µg/mL (≈ 66.8 µM).

As to `C=CCN1[C@H](c2ccc(OC)cc2)CC(=O)[C@@H](C)[C@@H]1c1ccc(OC)cc1` (relative stereo), the minimum inhibitory concentration (MIC) turned out to be 100 µg/mL (≈ 274 µM) against Staphylococcus aureus; 6.25 µg/mL (≈ 17.1 µM) with Bacillus subtilis; 25 µg/mL (≈ 68.4 µM) in the experiment with Salmonella typhi; 50 µg/mL (≈ 137 µM) in the experiment on Escherichia coli; 100 µg/mL (≈ 274 µM) in the experiment with Pseudomonas; 50 µg/mL (≈ 137 µM) against Penicillium chrysogenum. Moreover, the MIC was 12.5 µg/mL (≈ 34.2 µM) in the experiment with Aspergillus niger, 25 µg/mL (≈ 68.4 µM) against Rhizopus, 25 µg/mL (≈ 68.4 µM) against Fusarium oxysporum and 50 µg/mL (≈ 137 µM) against Aspergillus flavus.

On to `C=CCN1[C@H](c2ccccc2)CC(=O)[C@@H](CC)[C@@H]1c1ccccc1` (relative stereo), for which the MIC in the experiment with Staphylococcus aureus amounted to 100 µg/mL (≈ 313 µM); against Bacillus subtilis, 12.5 µg/mL (≈ 39.1 µM); against Salmonella typhi, 100 µg/mL (≈ 313 µM); against Escherichia coli it was 50 µg/mL (≈ 157 µM); in the experiment with Pseudomonas, 100 µg/mL (≈ 313 µM); against Penicillium chrysogenum, 25 µg/mL (≈ 78.3 µM). Also, the MIC in the experiment with Aspergillus niger was 25 µg/mL (≈ 78.3 µM); in the experiment on Rhizopus, 12.5 µg/mL (≈ 39.1 µM); against Fusarium oxysporum it was 50 µg/mL (≈ 157 µM); with Aspergillus flavus it was 100 µg/mL (≈ 313 µM).

Turning to `C=CCN1[C@@H](c2ccccc2)C(C)(C)C(=O)C[C@H]1c1ccccc1` (relative stereo), the MIC against Staphylococcus aureus came out at 25 µg/mL (≈ 78.3 µM); against Bacillus subtilis, 100 µg/mL (≈ 313 µM); with Salmonella typhi it was 12.5 µg/mL (≈ 39.1 µM); against Escherichia coli it was 25 µg/mL (≈ 78.3 µM); against Pseudomonas, 25 µg/mL (≈ 78.3 µM); with Penicillium chrysogenum it was 25 µg/mL (≈ 78.3 µM). Besides, the MIC in the experiment on Aspergillus niger stood at 50 µg/mL (≈ 157 µM); against Rhizopus it was 100 µg/mL (≈ 313 µM); against Fusarium oxysporum, 50 µg/mL (≈ 157 µM); against Aspergillus flavus it was 25 µg/mL (≈ 78.3 µM).

As for `C=CCN1[C@H](c2ccc(C)cc2)C/C(=N\O)[C@@H](C)[C@@H]1c1ccc(C)cc1` (relative stereo), the minimal inhibitory concentration (MIC) with Staphylococcus aureus was 200 µg/mL (≈ 574 µM); against Bacillus subtilis, 50 µg/mL (≈ 143 µM); in the experiment with Salmonella typhi it was 12.5 µg/mL (≈ 35.9 µM); against Escherichia coli it was 50 µg/mL (≈ 143 µM); with Pseudomonas it was 25 µg/mL (≈ 71.7 µM); in the experiment on Penicillium chrysogenum it was 200 µg/mL (≈ 574 µM). The MIC against Aspergillus niger turned out to be 12.5 µg/mL (≈ 35.9 µM); against Rhizopus, 100 µg/mL (≈ 287 µM); in the experiment on Fusarium oxysporum it was 25 µg/mL (≈ 71.7 µM); with Aspergillus flavus it was 50 µg/mL (≈ 143 µM). The Ratio in experiment [1] worked out at 3; in experiment [2], 2.

The MIC is the lowest concentration that inhibits growth of the organism. Read a low MIC as greater potency.

Source of the values: ChEMBL document CHEMBL2157909, “Design, synthesis, spectral and biological evaluation of novel 1-allyl substituted 2,6-diphenylpiperidin-4-ones and its derivatives of oximes/oxime ethers” (2012).
